Data on three compounds can be found in article PMC10120462, “Styrylquinazoline derivatives as ABL inhibitors selective for different DFG orientations” (Journal of Enzyme Inhibition and Medicinal Chemistry, 2023).

Assay [1] has as its target T1, ABL (Homo sapiens, UniProt P00519).
T1 construct: purchased Promega
Briefly: Tyrosine kinase assay (Kinase Selectivity System TK-2, ADP-Glo). The class given is biochemical. As to conditions: 1 h incubation, mean ± SD of four experiments.

The target of assay [2] is T2, BTK (Homo sapiens, UniProt Q06187).
T2 construct: purchased Promega
The description is as above. Type of assay: biochemical. As to conditions: 1 h incubation, mean ± SD of four experiments.

The target of assay [3] is T3, BRK (Homo sapiens, UniProt Q13882).
T3 construct: purchased Promega
The description is as above. The following applies: 1 h incubation, mean ± SD of four experiments. Type of assay: biochemical.

For assay [4], the target named is T4, CSK (Homo sapiens, UniProt P41240).
T4 construct: purchased Promega
The assay is described as above. Type of assay: biochemical. As to conditions: 1 h incubation, mean ± SD of four experiments.

Assay [5] addresses T5, Fyn A (Homo sapiens, UniProt P06241).
T5 construct: purchased Promega
The description is as above. As to conditions: 1 h incubation, mean ± SD of four experiments. The class given is biochemical. The source says: All newly synthesised derivatives were screened for their inhibitory potential towards eight non-receptor tyrosine kinases, such as ABL, BTK, BRK and Src family kinases, such as CSK, Lyn, Lck, Fyn and Src. […] To facilitate the analysis of the structure and enzymatic activity, all tested compounds were divided into four subgroups based on the main structural scaffolds (the general structure of each group is shown in the second column of Table 1). Series A, B, and C were subdivided according to the S^4-aryl substituent, while D represents the different styryl groups at the C^2-quinazoline position.
Herein, we used a kinase assay that contained fully expressed kinases with their regulatory domains, which are responsible for autoinhibition. The proteins are present in their unphosphorylated form and the procedure required supplementation with ATP. Importantly, autophosphorylation of ABL is dependent on […] concentration of the protein. Thus, our experimental conditions reflect the cellular process to be simulated. The luminescence signal detected after one hour of incubation with a peptide substrate was a measure of inhibition. Under these conditions, the question of whether the inhibitors tested bind to the ortho or allosteric site of the protein could be answered. […] To test this hypothesis, further molecular docking experiments were performed to more precisely determine the binding of the tested compounds to the ABL kinase.
To determine the inhibition of non-receptor tyrosine kinases, assays were performed using the kinase selectivity system TK-2 and the ADP-Glo Kinase Assay (both from Promega). The protocol was previously developed by our group and described in reports[12]^,[36]. Experiments were performed at least four times. Data are expressed as percentage of tyrosine kinase inhibitory activity after treatment with the derivatives tested.

Assay [6] concerns the target T6, Lck (Homo sapiens, UniProt P06239).
T6 construct: purchased Promega
Described as above. Type of assay: biochemical. The following applies: 1 h incubation, mean ± SD of four experiments.

Assay [7] addresses T7, Lyn B (Homo sapiens, UniProt P07948).
T7 construct: purchased Promega
The assay is described as above. Type of assay: biochemical. The following applies: 1 h incubation, mean ± SD of four experiments.

Assay [8] deals with T8, Src (Homo sapiens, UniProt P12931).
T8 construct: purchased Promega
Described as above. Type of assay: biochemical. As to conditions: 1 h incubation, mean ± SD of four experiments.

For assay [9], the system named is A549. Briefly: Cytotoxicity studies (MTS), antiproliferative activity. As to conditions: Homo sapiens, A549; 72 h, MTS. The class given is cell-based, human. From the text: (§1) In contrast, the other cell lines studied represent common cancers found in the human population. Nevertheless, these cell lines are characterised by a different landscape of kinase expression, as reported in[36]. In chronic leukaemia cells, an aberration of the Philadelphia chromosome is common in which a fragment of chromosome 9 is displaced to chromosome 22, leading to the formation of the oncogenic protein BCR-ABL. The altered structure of the protein leads to abnormal activity that promotes excessive growth and differentiation of cells even in the absence of growth factors, as well as inhibition of apoptosis and formation of metastases. Moreover, the status of the TP53 gene in leukaemia is not insignificant. Mutations of the TP53 gene occur in more than 50% of all cancers, leading to increased metastasis and an overall poor prognosis[38]^,[39]. The p53 protein encoded by this gene plays a pivotal role in controlling cell division or cell fate when damage is detected. […] Therefore, interaction between the signalling network of the BCR-ABL pathway and p53 often results in an impairment of p53 function and survival[43]^,[44]. […] Selectivity studies were performed on normal human fibroblast – NHDF cell line.
(§2) M. Rusin from the Maria Sklodowska-Curie Memorial Cancer Centre and Institute of Oncology in Gliwice, Poland. […] G. Kramer-Marek from the Institute of Cancer Research in London, United Kingdom. The human suspension chronic myeloids leukaemia cell line K562 and the pancreatic ductal adenocarcinoma cell line PANC-1 were purchased from Merck. The normal human dermal fibroblasts cell line NHDF were obtained from PromoCell. All adherent cancer cell lines were cultured in Dulbecco’s Modified Eagle’s medium (DMEM) supplemented with 10% heat-inactivated foetal bovine serum – FBS (all from Merck). […] Each complete medium contained a mixture of two antibiotics - penicillin and streptomycin (1% v/v; Gibco). Cell lines were cultured at 37 °C with 5% CO2 humidified atmosphere.
(§3) The assay was carried out after 72 h of incubation with different concentrations of the tested compounds. Then DMEM without phenol red was added to each well with CellTiter 96®AQueous One Solution-MTS (Promega) solution and incubated for 1 h or 3 h (PANC-1) at 37 °C. The optical densities of the samples were measured at 490 nm using a multi-plate reader (Synergy 4, BioTek). […] Each compound was tested in triplicate in a single experiment and each experiment was performed three or four times.

The subject of assay [10] is HCT 116 p53+/+. Described as above. Type of assay: cell-based, human. As to conditions: Homo sapiens, HCT-116; 72 h, MTS.
From the text: as §1, §2, §3

The test system of assay [11] is HCT 116 p53−/−. Described as above. Type of assay: cell-based, human. As to conditions: Homo sapiens, HCT-116; 72 h, MTS.
From the text: as §1, §2, §3

In assay [12] the test system is K562. Described as above. The class given is cell-based, human. The following applies: Homo sapiens, K562; 72 h, MTS.
From the text: as §1, §2, §3

Assay [13] relates to MCF-7. Described as above. The class given is cell-based, human. As to conditions: Homo sapiens, MCF7; 72 h, MTS.
From the text: as §1, §2, §3

Assay [14] deals with PANC-1. The description is as above. Type of assay: cell-based, human. The following applies: Homo sapiens, PANC-1; 72 h, MTS.
From the text: as §1, §2, §3

Assay [15] concerns U-251. Described as above. The following applies: Homo sapiens, U-251; 72 h, MTS. The class given is cell-based, human.
From the text: as §1, §2, §3

For assay [16], the system named is NHDF. The assay is described as follows: Cytotoxicity studies (MTS), normal fibroblasts. Type of assay: cell-based. The following applies: 72 h, normal human fibroblasts, read-out: Antiproliferative activity IC50 NHDF.
From the text: as §1, §2, §3

Assay [17] has as its system K562 cells. The assay is described as follows: Cell cycle assay (Muse Cell-Cycle Kit, flow cytometry). Type of assay: cell-based, human. The following applies: 16 h. How it is done: The interesting inhibitory potential of ABL kinase and the high antiproliferative activity of several styrylquinazoline derivatives prompted us to further investigate their mechanism of action.
K562 cells were seeded in 3 cm Petri dishes (Nunc) at a density of 150,000 cells per well and incubated under standard conditions at 37 °C for 24 h. […] After 16 h of treatment, assays were performed using a Muse Cell-Cycle Kit (Millipore) according to the supplier’s instructions. Briefly, leukaemia cells were collected, washed in cold PBS, and centrifuged. Cells were then fixed in ice-cold 70% ethanol and stored at −20 °C overnight. The next day, leukaemia cells were washed with cold PBS, centrifuged and resuspended in Muse™ Cell Cycle Reagent. Samples were incubated for 30 min at room temperature in the dark. After staining, the levels of cellular subpopulations in each cell cycle phase were determined using a Muse Cell Analyser (Millipore). Experiments were performed at least four times.

The subject of assay [18] is K562 cells. The assay is described as follows: Analysis of mRNA expression (RT-qPCR). The class given is cell-based, human. The following applies: 16 h; IS1 50 µM, IS8 12 µM, IS10 20 µM, imatinib 2 µM, GNF-2 2 µM. The source says: In the next step, the inhibitory potential of the tested compounds at the gene and protein levels was verified in K562 cells. For this purpose, we examined changes in the expression of the ABL signalling pathway and ABL downstream targets after exposure to IS1, IS8 and IS10. […] The enhanced transcription of the ABL gene might be related to the low protein level that was reached after exposure to the tested drugs. Thus, the cellular machinery could induce increased protein synthesis to counteract the effects of inhibition. […] The second gene studied, SRC, is involved in signal transduction from growth factors and receptors. Similar to ABL, the Src protein has oncogenic activity and is overexpressed in cancer cells. It is also important to emphasise that both kinases form a specific direct signalling network, as […].
Reverse transcription was carried out with 1 μg total RNA using a ProtoScript M-MuLV First Strand cDNA Synthesis Kit (New England BioLabs). The RT-qPCR was performed using a CTX96 Real-Time PCR Detection System (Biorad) in a 10 μL reaction volume containing Luna Universal qPCR Master Mix (New England BioLabs), specific primer pair mix and cDNA. The PCR reaction was performed as follows: initial denaturation at 95 °C for 60 s; followed by 40 cycles of denaturation at 95 °C, 15 s; annealing (primer-specific temperature for 30 s) and extension at 72 °C for 30 s. Melting curve analysis was used to determine the specific PCR products. The results were analysed based on comparison of the expression of the target genes with the reference gene – HPRT1 using the 2^−^ΔΔ^CT method. Experiments were performed at least four times.

Assay [19] deals with K562 cells. Briefly: Immunoblotting. Type of assay: cell-based, human. The following applies: 16 h. The source says: Changes in the expression of the BCR-ABL and ABL proteins and their downstream targets, such as STAT5, Src, Akt and Fyn after treatment with the tested compounds were also examined. As shown in Figure 7(B), no significant changes in the phosphorylation of BCR-ABL were observed after treatment with the tested styrylquinazolines. […] For reference inhibitors, there were greater changes in the expression of this protein. There were also interesting changes in the downstream targets of ABL, STAT5 and Src. […] Unfortunately, contrary to our assumptions and earlier results, IS1 was ineffective in inhibiting ABL, STAT5, and Src phosphorylation at the concentrations used. However, this derivative caused downregulation of Fyn expression, which could confirm its high inhibitory potential from in vitro kinase assays. […] Thus, these compounds were capable of blocking the pro-survival pathway facilitated by Akt kinase.
Prior to the experiment, K562 cells were seeded at a density of 500,000 cells per well in 3 cm Petri dishes (Nunc). […] After 16 h of exposure, cells were collected, centrifuged, and lysed on ice in complete RIPA buffer containing Halt Protease Inhibitor Cocktail, Halt Phosphatase Inhibitor Cocktail and 0.5 M EDTA (all from Thermo Scientific). Protein quantification was measured using a BCA Protein Assay Kit (Thermo Scientific) according to the manufacturer’s protocol. Equal amounts of the proteins were electrophoresed on SDS-page gels and transferred to nitrocellulose membranes. After blocking in 5% non-fat milk prepared in TTBS (Tris buffered saline with Tween 20), membranes were incubated overnight at 4 °C with specific primary antibodies (all from Cell Signalling) at a dilution of 1:1000 for c-ABL, phospho-c-ABL, Stat5, phospho-Stat5, cyclin E1, p27, PARP, AIF, BID, Src, Fyn, Akt, phospho-Akt, and at a dilution of 1:2000 for reference proteins (vinculin, β-actin and GAPDH). The next day, membranes were washed and incubated with horseradish peroxidase (HRP)-conjugated secondary antibodies for 1 h at room temperature. Chemiluminescence signals were recorded after staining with SuperSignal™ West Pico Chemiluminescent Substrate (Thermo Scientific) using a ChemiDoc™ XRS + System (BioRad). Experiments were performed four to five times. Densitometric analysis was performed using ImageJ software (Wayne Rasband, National Institutes of Health, USA).

T3 sequence (Q13882 whole entry): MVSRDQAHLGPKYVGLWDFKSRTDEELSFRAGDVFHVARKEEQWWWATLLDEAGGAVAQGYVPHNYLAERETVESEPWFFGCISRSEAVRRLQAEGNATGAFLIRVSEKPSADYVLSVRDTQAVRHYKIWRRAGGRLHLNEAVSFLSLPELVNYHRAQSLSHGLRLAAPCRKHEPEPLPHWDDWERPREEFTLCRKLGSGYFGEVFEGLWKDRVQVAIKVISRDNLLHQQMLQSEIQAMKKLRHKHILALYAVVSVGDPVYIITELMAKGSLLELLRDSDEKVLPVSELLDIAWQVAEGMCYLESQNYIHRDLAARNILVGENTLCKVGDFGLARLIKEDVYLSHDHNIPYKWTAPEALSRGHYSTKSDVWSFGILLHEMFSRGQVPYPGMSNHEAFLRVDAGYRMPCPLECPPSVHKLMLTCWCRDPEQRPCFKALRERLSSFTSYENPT
T7 sequence (P07948 1-491 isoform P07948-2): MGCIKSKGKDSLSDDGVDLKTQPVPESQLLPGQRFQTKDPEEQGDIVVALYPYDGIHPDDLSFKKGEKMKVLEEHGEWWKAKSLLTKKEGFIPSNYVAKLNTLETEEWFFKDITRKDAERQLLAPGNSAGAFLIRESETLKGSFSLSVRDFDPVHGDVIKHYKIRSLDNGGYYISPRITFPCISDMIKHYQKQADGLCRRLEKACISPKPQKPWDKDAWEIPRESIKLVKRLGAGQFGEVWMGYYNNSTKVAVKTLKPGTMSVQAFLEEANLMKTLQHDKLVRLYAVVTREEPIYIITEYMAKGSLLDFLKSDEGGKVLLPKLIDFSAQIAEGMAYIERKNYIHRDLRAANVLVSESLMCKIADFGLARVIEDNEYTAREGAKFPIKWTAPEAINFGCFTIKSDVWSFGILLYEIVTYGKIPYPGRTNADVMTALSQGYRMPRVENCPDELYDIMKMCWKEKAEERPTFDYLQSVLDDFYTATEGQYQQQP
T4 sequence (P41240 whole entry): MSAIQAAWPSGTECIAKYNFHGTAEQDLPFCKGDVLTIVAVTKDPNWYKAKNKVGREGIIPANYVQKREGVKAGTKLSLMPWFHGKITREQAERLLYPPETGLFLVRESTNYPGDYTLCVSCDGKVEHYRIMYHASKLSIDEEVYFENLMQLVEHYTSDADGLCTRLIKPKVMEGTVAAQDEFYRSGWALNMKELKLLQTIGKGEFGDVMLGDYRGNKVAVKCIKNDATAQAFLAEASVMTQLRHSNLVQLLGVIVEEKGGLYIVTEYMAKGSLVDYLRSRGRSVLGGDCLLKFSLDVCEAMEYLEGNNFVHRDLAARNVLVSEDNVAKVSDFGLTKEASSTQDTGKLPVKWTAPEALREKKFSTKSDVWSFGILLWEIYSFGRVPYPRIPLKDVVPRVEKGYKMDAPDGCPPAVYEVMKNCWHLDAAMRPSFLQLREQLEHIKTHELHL
T5 sequence (P06241 whole entry): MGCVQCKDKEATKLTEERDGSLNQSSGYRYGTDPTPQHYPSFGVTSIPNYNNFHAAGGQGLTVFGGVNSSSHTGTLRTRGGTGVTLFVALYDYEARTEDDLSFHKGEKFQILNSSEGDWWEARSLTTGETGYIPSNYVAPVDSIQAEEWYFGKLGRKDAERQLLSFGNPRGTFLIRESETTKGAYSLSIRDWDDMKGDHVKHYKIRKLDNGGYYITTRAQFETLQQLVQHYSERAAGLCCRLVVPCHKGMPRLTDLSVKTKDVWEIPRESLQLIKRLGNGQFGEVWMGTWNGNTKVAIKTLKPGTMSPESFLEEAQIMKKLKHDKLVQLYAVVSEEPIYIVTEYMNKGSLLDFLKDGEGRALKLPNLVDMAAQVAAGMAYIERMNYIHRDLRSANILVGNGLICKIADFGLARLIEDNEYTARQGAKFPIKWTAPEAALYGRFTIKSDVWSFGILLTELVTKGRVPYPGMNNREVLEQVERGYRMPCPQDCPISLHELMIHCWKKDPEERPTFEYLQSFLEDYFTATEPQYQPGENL
T8 sequence (P12931 whole entry): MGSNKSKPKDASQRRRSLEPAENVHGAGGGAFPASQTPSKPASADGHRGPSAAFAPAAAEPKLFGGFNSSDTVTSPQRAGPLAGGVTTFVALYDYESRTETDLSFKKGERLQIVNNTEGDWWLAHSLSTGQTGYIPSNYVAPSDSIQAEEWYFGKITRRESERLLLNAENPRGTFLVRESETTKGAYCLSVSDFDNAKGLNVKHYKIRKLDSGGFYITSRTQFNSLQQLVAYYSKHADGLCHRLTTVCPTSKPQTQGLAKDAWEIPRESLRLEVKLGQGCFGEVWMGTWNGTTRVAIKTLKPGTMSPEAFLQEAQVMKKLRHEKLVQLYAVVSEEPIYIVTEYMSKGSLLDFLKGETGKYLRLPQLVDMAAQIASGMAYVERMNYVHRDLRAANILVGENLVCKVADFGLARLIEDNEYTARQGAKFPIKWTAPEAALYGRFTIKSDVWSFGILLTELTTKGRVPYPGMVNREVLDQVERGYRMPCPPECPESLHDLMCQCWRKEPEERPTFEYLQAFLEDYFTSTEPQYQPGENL
T2 sequence (Q06187 whole entry): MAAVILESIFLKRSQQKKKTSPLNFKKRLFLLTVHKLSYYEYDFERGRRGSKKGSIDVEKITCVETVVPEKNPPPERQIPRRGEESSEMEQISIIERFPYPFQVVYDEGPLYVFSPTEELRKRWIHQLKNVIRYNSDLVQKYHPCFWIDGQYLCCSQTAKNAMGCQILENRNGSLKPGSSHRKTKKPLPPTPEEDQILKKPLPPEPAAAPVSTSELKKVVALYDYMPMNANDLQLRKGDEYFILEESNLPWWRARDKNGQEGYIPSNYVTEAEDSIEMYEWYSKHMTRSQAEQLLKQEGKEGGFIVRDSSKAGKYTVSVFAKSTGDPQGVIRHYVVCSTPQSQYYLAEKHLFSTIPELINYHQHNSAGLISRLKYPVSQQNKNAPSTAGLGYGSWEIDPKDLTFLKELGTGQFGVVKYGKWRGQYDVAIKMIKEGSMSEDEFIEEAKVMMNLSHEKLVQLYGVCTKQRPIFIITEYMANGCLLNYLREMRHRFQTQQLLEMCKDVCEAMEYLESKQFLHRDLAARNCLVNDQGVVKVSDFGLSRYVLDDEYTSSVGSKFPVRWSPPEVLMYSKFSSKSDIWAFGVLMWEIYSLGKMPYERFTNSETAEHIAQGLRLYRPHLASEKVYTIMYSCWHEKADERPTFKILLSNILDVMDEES
T1 sequence (P00519 whole entry): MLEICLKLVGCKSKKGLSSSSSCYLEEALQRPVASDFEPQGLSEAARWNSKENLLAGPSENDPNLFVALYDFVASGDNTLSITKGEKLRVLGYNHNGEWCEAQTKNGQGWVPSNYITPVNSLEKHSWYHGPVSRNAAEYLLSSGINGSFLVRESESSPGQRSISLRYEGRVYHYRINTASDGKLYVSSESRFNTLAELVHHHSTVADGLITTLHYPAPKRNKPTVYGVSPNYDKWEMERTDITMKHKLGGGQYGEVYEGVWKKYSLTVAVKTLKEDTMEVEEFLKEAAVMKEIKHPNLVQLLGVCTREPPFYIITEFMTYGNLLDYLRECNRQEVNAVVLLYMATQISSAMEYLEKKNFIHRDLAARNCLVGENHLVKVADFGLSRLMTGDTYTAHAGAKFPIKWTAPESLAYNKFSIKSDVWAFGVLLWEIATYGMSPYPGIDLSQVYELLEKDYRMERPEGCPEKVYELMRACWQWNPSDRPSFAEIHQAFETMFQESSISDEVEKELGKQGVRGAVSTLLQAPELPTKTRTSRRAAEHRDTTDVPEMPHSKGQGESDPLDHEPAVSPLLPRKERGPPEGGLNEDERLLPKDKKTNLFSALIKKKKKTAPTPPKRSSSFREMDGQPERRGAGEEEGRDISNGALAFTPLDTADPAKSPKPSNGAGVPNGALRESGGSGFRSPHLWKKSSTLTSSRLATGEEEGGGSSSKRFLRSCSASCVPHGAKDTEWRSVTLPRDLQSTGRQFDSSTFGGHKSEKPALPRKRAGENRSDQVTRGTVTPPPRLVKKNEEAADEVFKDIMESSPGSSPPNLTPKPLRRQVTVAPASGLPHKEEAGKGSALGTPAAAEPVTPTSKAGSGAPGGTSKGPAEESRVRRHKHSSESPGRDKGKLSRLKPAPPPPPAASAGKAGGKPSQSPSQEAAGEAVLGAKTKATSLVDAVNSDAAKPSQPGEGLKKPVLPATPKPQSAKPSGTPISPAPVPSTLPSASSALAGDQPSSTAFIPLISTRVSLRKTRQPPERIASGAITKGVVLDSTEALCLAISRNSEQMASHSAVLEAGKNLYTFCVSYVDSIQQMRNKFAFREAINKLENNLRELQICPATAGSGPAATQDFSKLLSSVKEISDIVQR
T6 sequence (P06239 whole entry): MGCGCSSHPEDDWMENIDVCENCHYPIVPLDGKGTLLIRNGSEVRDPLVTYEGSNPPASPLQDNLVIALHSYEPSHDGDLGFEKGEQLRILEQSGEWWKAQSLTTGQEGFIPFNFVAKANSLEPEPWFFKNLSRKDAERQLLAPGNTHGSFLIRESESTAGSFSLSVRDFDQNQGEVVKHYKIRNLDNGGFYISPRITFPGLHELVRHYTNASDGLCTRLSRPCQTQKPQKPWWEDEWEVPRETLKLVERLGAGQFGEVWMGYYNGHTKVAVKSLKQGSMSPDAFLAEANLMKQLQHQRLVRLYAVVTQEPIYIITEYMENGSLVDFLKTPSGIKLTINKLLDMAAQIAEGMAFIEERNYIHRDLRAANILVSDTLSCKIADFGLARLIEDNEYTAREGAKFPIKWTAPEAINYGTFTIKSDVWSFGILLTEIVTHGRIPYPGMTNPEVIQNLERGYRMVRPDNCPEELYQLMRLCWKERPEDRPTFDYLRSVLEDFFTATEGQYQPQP

For `COc1ccccc1/C=C/c1nc(Sc2cc3c(cc2Br)OCO3)c2ccc(Cl)cc2n1` [IS15, 5-{2-[(E)-2–(2-methoxyphenyl)ethenyl]-7-chloroquinazolin-4-ylthio}-6-bromo-2H-1,3-benzodioxole], the “Inhibition of tyrosine kinase activity [%] ABL” value in [1] (0.5 μM) amounted to 41.81 ± 4.38%. Also, the inhibition at 0.5 µM was found to be 41% in [1]; 39.3 ± 2.69% in assay [2]; 27.2 ± 1.31% in [3]; 33.1 ± 1.19% in [4]; 57.5 ± 4.04% in [5]; 51.5 ± 4.55% in assay [6]. The inhibition at 0.5 µM in assay [7] came to 32.3 ± 2.51%; in assay [8], 53.4 ± 3.13%. Further, the IC50 in assay [9] is greater than 25 µM; in [10] it was greater than 25 µM; in assay [11], greater than 25 µM; in assay [12] it was 21.2 ± 2.19 µM; in [13] it was greater than 25 µM; in [14] it was greater than 25 µM. Further, the IC50 in assay [15] and in [16] was greater than 25 µM throughout.

Regarding `Cc1ccc(NC(=O)c2ccc(CN3CCN(C)CC3)cc2)cc1Nc1nccc(-c2cccnc2)n1` [Imatinib, imatinib, reference compound], the inhibition at 0.5 µM in [2], in assay [3], in assay [4], in [5] and in [7] was 0% each time. In addition, in [17], the “Cell cycle arrest (phase)” value was “inhibition of G0/G1 phase”. Besides, the “CCNE2 expression (mRNA)” value in assay [18] was “increase”. For the same compound, the “Expression of the ABL gene (mRNA)” value in [18] is recorded as “slight non-significant decrease”. Moreover, the “SRC mRNA levels” value in assay [18] is listed as “significant decrease”. Moreover, the AIF protein entry in assay [19] was “significant increase”. Besides, in assay [19], the “Src protein expression / phosphorylation” value is reported as “significant accumulation”. Moreover, the STAT5 phosphorylation entry in assay [19] (at the concentrations used) is given as “stronger effect”.

As for `CNC(=O)c1ccccc1Sc1ccc2c(/C=C/c3ccccn3)n[nH]c2c1` [Axitinib, axitinib, reference compound], the inhibition at 0.5 µM in assay [3] came to 0%; in [4] it was 11.4 ± 3.89%; in [5], 43.8 ± 2.96%; in [7] it was 39 ± 9.95%; in assay [8] it was 10.8 ± 1.95%. Further, in assay [17] (concentration not given, control 28.68%), the “Fraction of cells in the G2/M phase” value came to 47.28%.
